In PubChem BioAssay (NCI):
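Cells were grown in 96-well plates and exposed to each compound for 48 hours at five concentrations; endpoints were interpolated linearly between bracketing concentrations, or set to the highest concentration if not reached. The concentration for full growth arrest is given as TGI.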

What was measured:
Assay in all cases: DTP human tumour cell line panel, 48 h
PC-3 prostate = system: PC-3 prostate
SF-295 CNS = system: SF-295 CNS
HOP-62 NSCLC = system: HOP-62 NSCLC
NCI/ADR-RES ovarian = system: NCI/ADR-RES ovarian
UO-31 renal = system: UO-31 renal
HCT-116 colon = system: HCT-116 colon
EKVX NSCLC = system: EKVX NSCLC
M14 melanoma = system: M14 melanoma
OVCAR-8 ovarian = system: OVCAR-8 ovarian
SNB-19 CNS = system: SNB-19 CNS
SK-MEL-5 melanoma = system: SK-MEL-5 melanoma
HCC-2998 colon = system: HCC-2998 colon
NCI-H226 lung = system: NCI-H226 lung
ACHN renal = system: ACHN renal
DU-145 prostate = system: DU-145 prostate
UACC-257 melanoma = system: UACC-257 melanoma
HT29 colon = system: HT29 colon
CAKI-1 renal = system: CAKI-1 renal
RPMI-8226 leukemia = system: RPMI-8226 leukemia

SMILES	TGI (PC-3 prostate) [µM]	TGI (SF-295 CNS) [µM]	TGI (HOP-62 NSCLC) [µM]	TGI (NCI/ADR-RES ovarian) [µM]	TGI (UO-31 renal) [µM]	TGI (HCT-116 colon) [µM]	TGI (EKVX NSCLC) [µM]	TGI (M14 melanoma) [µM]	TGI (OVCAR-8 ovarian) [µM]	TGI (SNB-19 CNS) [µM]	TGI (SK-MEL-5 melanoma) [µM]	TGI (HCC-2998 colon) [µM]	TGI (NCI-H226 lung) [µM]	TGI (ACHN renal) [µM]	TGI (DU-145 prostate) [µM]	TGI (UACC-257 melanoma) [µM]	TGI (HT29 colon) [µM]	TGI (CAKI-1 renal) [µM]	TGI (RPMI-8226 leukemia) [µM]
CC1(C)CC(=O)c2c([nH]c(=S)c(C#N)c2-c2ccc(Br)cc2)C1	> 100	> 100	> 100	> 100	> 100	> 100	> 100	> 100	> 100	> 100	> 100	> 100	> 100	> 100	> 100	> 100	> 100	> 100	
CC1(C)[C@H]2CC[C@](C)(C2)[C@]1(S)Cc1ccccn1	67.6	98.8	> 100	> 100	> 100	> 100	> 100	> 100	42.6	> 100	64.3	41.5		> 100	> 100	72.7	> 100	> 100	93.5
O=C1CC2(CCN(CC3COc4ccccc4O3)CC2)C(=O)N1N1CCCCCC1 (stereo unspecified)	> 100	> 100	> 100	> 100	> 100	> 100	> 100	> 100	> 100	> 100	> 100		> 100	> 100	> 100	> 100	47.6	> 100	> 100
CCCCCCCCCCCCCCCCOP(=O)(O)OP(=O)(O)OCC1OC(n2cnc3c(N)ncnc32)C(O)C1O (stereo unspecified)	> 100		> 100	> 100	> 100	> 100	> 100	> 100	> 100	> 100	> 100	> 100	> 100	> 100	> 100	> 100	> 100	> 100	
SCc1ccc(-c2ccc(CS)cc2)cc1	34	24.9	14	32.3	37.8	17.8	54.1	29.8	53.7	36.4	31	30.6	36.9	43.1		45.2	69.8	18.5	30.6
Cc1nc2ccc(F)cc2c2c1CCN2c1ccccc1	86.2	34.4	> 100	68	68.1	23.2	94.9		44.6	> 100	26.8	38.2	41.8	67	> 100	40.1	> 100		37.1
OC1C2CCC3C2CC(C(O)(c2ccccc2)c2ccccc2)C13 (stereo unspecified)	> 100	> 100	> 100	> 100	> 100	> 100	> 100	> 100	> 100	> 100	> 100	> 100	92.6	> 100	> 100	95.6	> 100	> 100	
CC(=O)OC(=C(C#N)C#N)c1nccnc1C(=O)O	> 100	> 100		> 100	> 100	> 100	> 100	> 100	> 100	> 100	> 100	> 100	> 100	> 100	> 100	> 100	> 100	> 100	> 100
Cc1c2ccccc2c(CSC(=N)N)c2ccccc12	0.829	2.29	1.99	0.924	0.511	1.35	1.33	0.537	6.43	1.39	0.331		0.679	0.303	0.406	0.406	1.05		0.558
COc1ccc(OC)c2sc(N3C(=O)/C(=C/c4ccc(SC)cc4)N=C3c3ccccc3)nc12	50.6	> 100	40	89.9	63.7	41.3	> 100	46.1	92.6	68.5	33.8	> 100		86.6	> 100	> 100	53.3	> 100	63.3
Cc1ccc(N/C(=C(/C(Cl)=C(Cl)Cl)[N+](=O)[O-])n2nnc3ccccc32)cc1	33.8	36.7	39.7	69.5	30.2	75.5	39.5	31.7	38	33.9		35.1	35.3	44.9		62.7	42	31.6	64.8
Clc1ccc(-c2c3nc(c(-c4ccc(Cl)cc4)c4ccc([nH]4)c(-c4ccc(Cl)cc4)c4nc(c(-c5ccc(Cl)cc5)c5ccc2[nH]5)C=C4)C=C3)cc1	> 100	> 100	> 100	> 100	> 100		> 100	> 100	> 100	> 100	> 100	> 100		> 100		> 100	> 100	> 100	> 100
CC(SC(=S)N(C)C)C(=O)Nc1nnc(-c2ccc(Cl)cc2)o1 (stereo unspecified)	> 100		> 100	> 100	> 100	> 100		> 100	> 100	> 100	> 100	> 100	> 100	> 100	> 100	> 100	51.9		66.6
